Data on eight compounds can be found in patent US6504057B2, “Fluorophenyl-substituted alkenylcarboxylic acid guanidides, process for their preparation, their use as a medicament or diagnostic, and medicament containing them” (Hoechst Aktiengesellschaft, priority 1995, dated 2003).

Where a name gives a salt, the structure may show the parent alone.

Tested on in one data set: not given
Conditions: not given
With `NC(N)=NC(=O)/C=C/c1ccccc1F` (as salt: hydrochloride) [Example 4, E-3-(2-Fluorophenyl)acrylic acid guanidide hydrochloride], the melting point was 243 °C. Turning to `NC(N)=NC(=O)/C=C/c1cccc(F)c1` (as salt: hydrochloride) [Example 1, E-3-(3-Fluorophenyl)acrylic acid guanidide hydrochloride], the melting point came out at 148 °C. In turn, `NC(N)=NC(=O)/C=C/c1cc(F)cc(F)c1` (as salt: hydrochloride) [Example 3, E-3-(3,5-Difluorophenyl) acrylic acid guanidide hydrochloride] came in with a melting point of 235 °C. In turn, `C/C(=C\c1cc(F)cc(F)c1)C(=O)N=C(N)N` (as salt: hydrochloride) [Example 5, E-3-(3,5-Difluorophenyl)-2-methylacrylic acid guanidide hydrochloride] showed a melting point of 178 °C. `C/C(=C\c1c(F)c(F)cc(F)c1F)C(=O)N=C(N)N` (as salt: hydrochloride) [Example 9, E-3-(2,3,5,6-Tetrafluorophenyl)-2-methylacrylic acid guanidide hydrochloride] came in with a melting point of 138 °C.

Consider `NC(N)=NC(=O)/C=C/c1cc(F)ccc1F` (as salt: hydrochloride) [Example 2, E-3-(2,5-Difluorophenyl)acrylic acid guanidide hydrochloride], for which the melting point was determined as 230 °C.

Another data set has as its system rat heart. The conditions noted are these: isolated rat heart; cited from earlier work.
For `N=C(N)NC(=O)c1nc(Cl)c(N)nc1N` [amiloride], the “suppression of artificially produced ventricular fibrillation” value is “completely suppressed”.

For `CCN(c1nc(N)c(C(=O)NC(=N)N)nc1Cl)C(C)C` [ethylisopropylamiloride], the “suppression of artificially produced ventricular fibrillation” value is “even more potent than amiloride”.
